From patent US5981558A, “DC107 derivatives” (Kyowa Hakko Kogyo Co., Ltd., priority 1996, dated 1999)

The molecules below were run on HeLa S3 cells (assay: HeLa S3 Cell Growth Inhibition Test). Conditions: HeLa S3; 72 hours incubation; Neutral Red; read-out: IC50, HeLa S3 cell growth inhibition.
Format: cell-based
Experimental: In each well of a 96-well microtiter plate was placed 0.1 mL of HeLa S3 cells having a concentration of 8×10^3 cells/mL and prepared in an MEM culture medium containing 10% fetal bovine serum and 2 mM glutamine. After the cells were incubated overnight at 37° C. in a carbon dioxide incubator, a test compound suitably diluted with a medium was added to the wells in an amount of 0.05 mL for each well. The cells were incubated at 37° C. for 72 hours in a carbon dioxide incubator. After the culture supernatant was removed, 0.1 mL of a culture medium containing 0.02% Neutral Red was added to each well. The cells were then incubated at 37° C. for 1 hour in a carbon dioxide incubator to dye the cells. After the culture supernatant was removed, each residue was rinsed once with physiological saline and the pigment was extracted with 0.001 N hydrochloric acid/30% ethanol. The absorbance at 550 nm of each extract was measured with a microplate reader. The drug concentration required for the 50% inhibition of cell growth, which is referred to as IC50, was calculated by comparing the absorbance for untreated cells with those for cells treated with the drug in known concentrations.

SMILES | IC50 [nM]
COC(=O)NCC(=O)OCSC(=O)C(C)(O)C12CC/C(C)=C/C(OC3CCCCO3)C(=O)/C=C/C=C\c3csc(n3)C(C)N(C(=O)C1)[S+]2[O-] (single isomer, unassigned) [Compound 42] | 47
COC(=O)[C@H](CCC(=O)OCSC(=O)C(C)(O)C12CC/C(C)=C/C(OC3CCCCO3)C(=O)/C=C/C=C\c3csc(n3)C(C)N(C(=O)C1)[S+]2[O-])NC(=O)[C@@]12O[C@@H](CO)[C@@H](O)[C@@H]1OC(C)(C)O2 (single isomer, unassigned) [Compound 65] | 3.1
COC(=O)[C@H](CCC(=O)OCSC(=O)C(C)(O)C12CC/C(C)=C/C(OC3CCCCO3)C(=O)/C=C/C=C\c3csc(n3)C(C)N(C(=O)C1)[S+]2[O-])NC(=O)[C@@]12O[C@@H](CO)[C@@H](O)[C@@H]1OC(C)(C)O2 (single isomer, unassigned) [Compound 66] | 48

Same assay, conditions: Homo sapiens, HeLa S3, 72 h, HeLa S3; 72 hours incubation; Neutral Red; read-out: IC50, HeLa S3 cell growth inhibition

SMILES | IC50 [nM]
COC(=O)CCC(=O)OCSC(=O)C(C)(O)C12CCC(C)=CC(O)C(=O)C=CC=Cc3csc(n3)C(C)N(C(=O)C1)[S+]2[O-] (centres unmarked) [Compound 1] | 7
COc1ccc(COCC(=O)OCSC(=O)C(C)(O)C23CCC(C)=CC(O)C(=O)C=CC=Cc4csc(n4)C(C)N(C(=O)C2)[S+]3[O-])cc1 (centres unmarked) [Compound 13] | 11
CC1=CC(O)C(=O)C=CC=Cc2csc(n2)C(C)N2C(=O)CC(C(C)(O)C(=O)SCOC(=O)CNC(=O)[C@@]34O[C@H]5COC(C)(C)O[C@H]5[C@@H]3OC(C)(C)O4)(CC1)[S+]2[O-] (some centres unmarked) [Compound 19] | 57
CC1=CC(O)C(=O)C=CC=Cc2csc(n2)C(C)N2C(=O)CC(C(C)(O)C(=O)SCOC(=O)CCNC(=O)[C@@]34O[C@H]5COC(C)(C)O[C@H]5[C@@H]3OC(C)(C)O4)(CC1)[S+]2[O-] (some centres unmarked) [Compound 20] | 110
COC(=O)[C@H](CCC(=O)OCSC(=O)C(C)(O)C12CCC(C)=CC(O)C(=O)C=CC=Cc3csc(n3)C(C)N(C(=O)C1)[S+]2[O-])NC(=O)c1ccc(OC(C)=O)cc1 (some centres unmarked) [Compound 26] | 68
CC(=O)Oc1ccc(C(=O)OCSC(=O)C(C)(O)C23CCC(C)=CC(O)C(=O)C=CC=Cc4csc(n4)C(C)N(C(=O)C2)[S+]3[O-])cc1 (centres unmarked) [Compound 30] | 15
CC(=O)Oc1ccc(CCC(=O)OCSC(=O)C(C)(O)C23CCC(C)=CC(O)C(=O)C=CC=Cc4csc(n4)C(C)N(C(=O)C2)[S+]3[O-])cc1 (centres unmarked) [Compound 32] | 1.3
CC(=O)Oc1ccc(CCCC(=O)OCSC(=O)C(C)(O)C23CCC(C)=CC(O)C(=O)C=CC=Cc4csc(n4)C(C)N(C(=O)C2)[S+]3[O-])cc1 (centres unmarked) [Compound 33] | 11
COC(=O)Nc1cccc(C(=O)OCSC(=O)C(C)(O)C23CCC(C)=CC(O)C(=O)C=CC=Cc4csc(n4)C(C)N(C(=O)C2)[S+]3[O-])c1 (centres unmarked) [Compound 34] | 55
COC1(OC2/C=C(\C)CCC3(C(C)(O)C(=O)SCOC(=O)CNC(=O)OC(C)(C)C)CC(=O)N(C(C)c4nc(cs4)/C=C\C=C\C2=O)[S+]3[O-])CCOCC1 (centres unmarked) [Compound 39] | 2.2
COC1(OC2/C=C(\C)CCC3(C(C)(O)C(=O)SCOC(=O)c4cccc(OC(C)=O)c4)CC(=O)N(C(C)c4nc(cs4)/C=C\C=C\C2=O)[S+]3[O-])CCOCC1 (centres unmarked) [Compound 55] | 11

Same assay, conditions: Homo sapiens, HeLa S3, 72 h, footnote *: Value after 72 hours of drug treatment; read-out: IC50, HeLa S3 cell growth inhibition

SMILES | IC50 [nM]
CC1=CC(O)C(=O)C=CC=Cc2csc(n2)C(C)N2C(=O)CC(C(C)(O)C(=O)SCOC(=O)c3ccc(C(=O)O)cc3)(CC1)[S+]2[O-] (centres unmarked) [Compound 9] | 150

Same assay, conditions: Homo sapiens, HeLa S3, 72 h, read-out: IC50, HeLa S3 cell growth inhibition, HeLa S3; 72 hours incubation; Neutral Red

SMILES | IC50 [nM]
COC(=O)CCCCC(=O)OCSC(=O)C(C)(O)C12CCC(C)=CC(O)C(=O)C=CC=Cc3csc(n3)C(C)N(C(=O)C1)[S+]2[O-] (centres unmarked) [Compound 2] | 7.5
CC1=CC(O)C(=O)C=CC=Cc2csc(n2)C(C)N2C(=O)CC(C(C)(O)C(=O)SCOC(=O)C(C)(C)NC(=O)OC(C)(C)C)(CC1)[S+]2[O-] (centres unmarked) [Compound 5] | 55
CC1=CC(O)C(=O)C=CC=Cc2csc(n2)C(C)N2C(=O)CC(C(C)(O)C(=O)SCOC(=O)c3ccccc3)(CC1)[S+]2[O-] (centres unmarked) [Compound 6] | 18
CC1=CC(O)C(=O)C=CC=Cc2csc(n2)C(C)N2C(=O)CC(C(C)(O)C(=O)SCOC(=O)CCNC(=O)[C@H]3O[C@@H]4OC(C)(C)O[C@@H]4[C@H]4OC(C)(C)O[C@H]43)(CC1)[S+]2[O-] (some centres unmarked) [Compound 21] | 380
COC(=O)N[C@@H](CCC(=O)OCSC(=O)C(C)(O)C12CCC(C)=CC(O)C(=O)C=CC=Cc3csc(n3)C(C)N(C(=O)C1)[S+]2[O-])C(=O)OC (some centres unmarked) [Compound 23] | 58
CC1=CC(O)C(=O)C=CC=Cc2csc(n2)C(C)N2C(=O)CC(C(C)(O)C(=O)SCOC(=O)CCCN3C(=O)C=CC3=O)(CC1)[S+]2[O-] (centres unmarked) [Compound 28] | 750
CC(=O)Oc1cccc(C(=O)OCSC(=O)C(C)(O)C23CCC(C)=CC(O)C(=O)C=CC=Cc4csc(n4)C(C)N(C(=O)C2)[S+]3[O-])c1 (centres unmarked) [Compound 31] | 6.2
COCCOCCOCC(=O)OCOC1/C=C(\C)CCC2(C(C)(O)C(=O)SCOC(=O)COCCOCCOC)CC(=O)N(C(C)c3nc(cs3)/C=C\C=C\C1=O)[S+]2[O-] (centres unmarked) [Compound 36] | 20
C/C1=C\C(OC2CCCCO2)C(=O)/C=C/C=C\c2csc(n2)C(C)N2C(=O)CC(C(C)(O)C(=O)SCOC(=O)CNC(=O)OC(C)(C)C)(CC1)[S+]2[O-] (centres unmarked) [Compound 38] | 3.8
C/C1=C\C(OC2CCCCO2)C(=O)/C=C/C=C\c2csc(n2)C(C)N2C(=O)CC(C(C)(O)C(=O)SCOC(=O)CNC(=O)[C@@]34O[C@H]5COC(C)(C)O[C@H]5[C@@H]3OC(C)(C)O4)(CC1)[S+]2[O-] (some centres unmarked) [Compound 43] | 24
C/C1=C\C(OC2CCCCO2)C(=O)/C=C/C=C\c2csc(n2)C(C)N2C(=O)CC(C(C)(O)C(=O)SCOC(=O)CCNC(=O)[C@@]34O[C@H]5COC(C)(C)O[C@H]5[C@@H]3OC(C)(C)O4)(CC1)[S+]2[O-] (some centres unmarked) [Compound 44] | 8.6
COC(=O)[C@H](CCC(=O)OCSC(=O)C(C)(O)C12CC/C(C)=C/C(OC3CCCCO3)C(=O)/C=C/C=C\c3csc(n3)C(C)N(C(=O)C1)[S+]2[O-])NC(=O)[C@@]12O[C@H]3COC(C)(C)O[C@H]3[C@@H]1OC(C)(C)O2 (some centres unmarked) [Compound 49] | 30
CC(=O)Oc1ccc(CCCC(=O)OCSC(=O)C(C)(O)C23CC/C(C)=C/C(OC4CCCCO4)C(=O)/C=C/C=C\c4csc(n4)C(C)N(C(=O)C2)[S+]3[O-])cc1 (centres unmarked) [Compound 56] | 0.52
COC(=O)Nc1cccc(C(=O)OCSC(=O)C(C)(O)C23CC/C(C)=C/C(OC4CCCCO4)C(=O)/C=C/C=C\c4csc(n4)C(C)N(C(=O)C2)[S+]3[O-])c1 (centres unmarked) [Compound 57] | 36
COC(=O)Nc1cccc(C(=O)OCSC(=O)C(C)(O)C23CC/C(C)=C/C(OC4(OC)CCOCC4)C(=O)/C=C/C=C\c4csc(n4)C(C)N(C(=O)C2)[S+]3[O-])c1 (centres unmarked) [Compound 58] | 38
C/C1=C\C(O)C(=O)/C=C/C=C\c2csc(n2)C(C)N2C(=O)CC(C(C)(O)C(=O)SCOC(=O)CCNC(=O)[C@@]34O[C@@H](CO)[C@@H](O)[C@@H]3OC(C)(C)O4)(CC1)[S+]2[O-] (some centres unmarked) [Compound 59] | 1300
COC(=O)[C@H](CCC(=O)OCSC(=O)C(C)(O)C12CC/C(C)=C/C(O)C(=O)/C=C/C=C\c3csc(n3)C(C)N(C(=O)C1)[S+]2[O-])NC(=O)C(C)(CO)CO (some centres unmarked) [Compound 61] | 720
C/C1=C\C(O)C(=O)/C=C/C=C\c2csc(n2)C(C)N2C(=O)CC(C(C)(O)C(=O)SCOC(=O)c3ccc(O)cc3)(CC1)[S+]2[O-] (centres unmarked) [Compound 67] | 50
C/C1=C\C(OC2CCCCO2)C(=O)/C=C/C=C\c2csc(n2)C(C)N2C(=O)CC(C(C)(O)C(=O)SCOC(=O)c3ccc(O)cc3)(CC1)[S+]2[O-] (centres unmarked) [Compound 68] | 35
C/C1=C\C(OC2CCCCO2)C(=O)/C=C/C=C\c2csc(n2)C(C)N2C(=O)CC(C(C)(O)C(=O)SCOC(=O)c3cccc(O)c3)(CC1)[S+]2[O-] (centres unmarked) [Compound 69] | 76
COC(=O)[C@H](CCC(=O)OCSC(=O)C(C)(O)C12CC/C(C)=C/C(OC3CCCCO3)C(=O)/C=C/C=C\c3csc(n3)C(C)N(C(=O)C1)[S+]2[O-])NC(=O)c1ccc(O)cc1 (some centres unmarked) [Compound 71] | 1.2
C/C1=C\C(OC2CCCCO2)C(=O)/C=C/C=C\c2csc(n2)C(C)N2C(=O)CC(C(C)(O)C(=O)SCc3oc(=O)oc3CCl)(CC1)[S+]2[O-] (centres unmarked) [Compound 74] | 19

Same assay, conditions: Homo sapiens; HeLa S3; 72 hours incubation; Neutral Red; read-out: IC50, HeLa S3 cell growth inhibition

SMILES | IC50 [nM]
C/C1=C\C(OC2CCCCO2)C(=O)/C=C/C=C\c2csc(n2)C(C)N2C(=O)CC(C(C)(O)C(=O)SCOC(=O)c3ccc(OP(=O)(O)O)cc3)(CC1)[S+]2[O-] (centres unmarked) [Compound 72] | 650
C/C1=C\C(OC2CCCCO2)C(=O)/C=C/C=C\c2csc(n2)C(C)N2C(=O)CC(C(C)(O)C(=O)SCOC(=O)c3cccc(OP(=O)(O)O)c3)(CC1)[S+]2[O-] (centres unmarked) [Compound 73] | 1900

Same assay, conditions: read-out: IC50, HeLa S3 cell growth inhibition; HeLa S3; 72 hours incubation; Neutral Red

SMILES | IC50 [nM]
C/C1=C\C(OC2CCCCO2)C(=O)/C=C/C=C\c2csc(n2)C(C)N2C(=O)CC(C(C)(O)C(=O)SCOC(=O)CNC(=O)[C@@]34O[C@@H](CO)[C@@H](O)[C@@H]3OC(C)(C)O4)(CC1)[S+]2[O-] (single isomer, unassigned) [Compound 62] | 71
C/C1=C\C(OC2CCCCO2)C(=O)/C=C/C=C\c2csc(n2)C(C)N2C(=O)CC(C(C)(O)C(=O)SCOC(=O)CNC(=O)[C@@]34O[C@@H](CO)[C@@H](O)[C@@H]3OC(C)(C)O4)(CC1)[S+]2[O-] (single isomer, unassigned) [Compound 63] | 270
